Laboratory results as given in publication PMC9401491, “The Novel Nucleoside Analogue ProTide NUC-7738 Overcomes Cancer Resistance Mechanisms In Vitro and in a First-In-Human Phase I Clinical Trial” (Clinical Cancer Research, 2021).
Like-named read-outs stand apart in the source and are kept apart here.

Assays:
UM-RC-2 = assay: IC50 in renal cancer cell line UM-RC-2; assay type: cell-based; conditions: UMRC2
[1] = tested on: Gastric or cervical cancer cells; assay: Apoptosis by cleaved PARP Western blot; assay type: cell-based; conditions: 50 and 100 μmol/L, 24 hours
Method: Cells (10^4) were seeded into 96-well plates and then treated with NUC-7738 (lot 5132/E00393/119) or 3′-dA (cordycepin, catalog no. C3394, lot 067M4182, Sigma) for 48 hours. One and a half milligrams per milliliter MTT (catalog no. M6494, Invitrogen) in a 1:1 ratio was added to cell culture media. After a 2-hour incubation at 37°C, media was removed and 70 μl of isopropanol was added. Optical densities at 570 nm were measured using POLARstar Omega plate reader. Readouts were normalized and IC50 values were calculated using a nonlinear regression model in Graphpad prism (v8.3.0). Each biological replicate (at least 3) was performed in 4 technical replicates to calculate the average IC50 value. To measure apoptosis, the Guava NexinReagent (Luminex Corp.) was used following manufacturer's instructions. Fluorescence staining was measured with an automated 96-well Guava easyCyte Flow Cytometer (Luminex Corp.).
Cells were harvested and lyzed using RIPA lysis and extraction buffer (Thermo Scientific) following manufacturer's protocol. Twenty to 30 μg of total protein lysates was loaded on Mini-PROTEAN TGX precast gels (Bio-Rad). Separated proteins were transferred to a polyvinylidene difluoride (PVDF) membrane using Trans-Blot Turbo Transfer System (Bio-Rad) followed by incubation with primary and horseradish peroxidase (HRP)–conjugated secondary antibodies [anti-mouse, catalog no. […]

[2] = design: method as in PMID 22833171, PMID 24419340; conditions: rat serum; cited from earlier work
[3] = design: method as in PMID 22833171, PMID 24419340; conditions: human serum; cited from earlier work

For `C[C@H](NP(=O)(OC[C@@H]1C[C@@H](O)[C@H](n2cnc3c(N)ncnc32)O1)Oc1ccccc1)C(=O)OCc1ccccc1` (stereo partly drawn) [NUC-7738, 3′-deoxyadenosine-5′-O-phenyl-(benzyloxy-L-alaninyl)-phosphate], the IC50 (UM-RC-2) is given as 4 µM, the “apoptotic cell death, cleaved PARP-1” value [1] is given as “induced apoptotic cell death” and the half-life in serum [2] is given as “less than 2 minutes”. For the same compound, the half-life in serum [3] was 7.07 h.
